The source made the active and inactive calls. The rule behind the calls is not given here.
Test: non-covalent RecA intein splicing inhibitors, dose response, biochemical, cell-free, fluorescence, secondary screen (AID 449750)

SMILES	AC50
Cc1cccn2c(CNCC3(c4ccccc4)CCCC3)c(C(=O)N3CCOCC3)nc12	> 38 µM (inactive)
COc1ccc(CNc2ccc3cn[nH]c3c2)c(OC)c1OC	14 µM
CCCc1[nH]nc2c1C(c1ccccc1OC)C(C#N)=C(N)O2 (centres undefined)	> 38 µM (inactive)
O=c1cc(-c2ccccc2)[nH]n1-c1ccc([N+](=O)[O-])cc1	13.1 µM
N#C[C@H]1[C@H](c2ccccc2)[C@](C#N)(C(=O)c2ccccc2)[C@@H]2C=Cc3ccccc3N21	> 38 µM (inactive)
O=[N+]([O-])/C(C(Cl)=C(Cl)Cl)=C(/Sc1ccccc1)N1CCCCC1	> 38 µM (inactive)
COCc1[nH]nc2c1C(c1cccc(OC)c1)C(C#N)=C(N)O2 (centres undefined)	> 38 µM (inactive)
Cc1c(-c2nn(C)c(=O)c3ccccc23)oc2ccc(F)cc2c1=O	3 µM
N#CC1=C(N)C(C#N)(C#N)C(c2cccnc2)C2CN(C(=O)OCc3ccccc3)CC=C12 (centres undefined)	> 38 µM (inactive)
O=S(=O)(Nc1c(O)ccc2ccccc12)c1ccc(F)cc1	13.3 µM
Oc1c(C=NCc2ccc(F)cc2)[nH]c2ccc(Br)c(Cl)c12	30.8 µM
O=c1[nH]c(CCl)nc2cc(-c3ccc(F)cc3)sc12	11.9 µM
CC(Oc1ccc(F)cc1)C(=O)Oc1ccc(N(C)S(=O)(=O)c2ccccc2)cc1 (centres undefined)	> 38 µM (inactive)
COC(=O)COc1ccc(C(c2c(C)[nH][nH]c2=O)c2c(C)[nH][nH]c2=O)cc1	13 µM
CCCCCc1cc(=O)oc2c(C(CCN3CCCC(C)C3)c3ccc(N(C)C)cc3)c(OC)cc(OC)c12 (centres undefined)	> 38 µM (inactive)
CC(=O)N(C)C1=C(N2CCOCC2)C(=O)c2ccccc2C1=O	15.7 µM
O=C(CCl)N1c2ccccc2CCc2ccccc21	3.76 µM
CCCCn1c(N)c(C(=O)NCc2cccs2)c2nc3ccccc3nc21	> 38 µM (inactive)
O=c1c(Cl)c(NCCCO)cnn1-c1nc2ccccc2[nH]1	> 38 µM (inactive)
Cc1nn(Cc2ccccc2)c2c1C(c1ccco1)C(C#N)=C(N)O2 (centres undefined)	> 38 µM (inactive)
CCCCCc1cc(=O)oc2c(C(CCN3CCCC(C)C3)c3ccc(OC)cc3)c(OC)cc(OC)c12 (centres undefined)	10.1 µM
COc1ccc(S(=O)(=O)Nc2ccc(O)c3ccccc23)cc1	0.296 µM
CC1(C)CC2(C)OC(=N)C1(C#N)C2(C#N)C#N (centres undefined)	> 38 µM (inactive)
Cc1cccc(CSC(Nc2ccc(F)cc2)=C(C#N)C#N)c1	> 38 µM (inactive)
N#CC1=C(N)C(C#N)(C#N)[C@H](c2c(F)cccc2F)[C@H]2CC3(CC=C12)OCCO3	> 38 µM (inactive)
CCOC(=O)c1c(NC(=O)CCl)sc(CN(C)C)c1-c1ccccc1	20.4 µM

SMILES	AC50
CCCNC(=O)c1nnsc1S(=O)c1ccc(Cl)cc1 (centres undefined)	32.9 µM
O=[N+]([O-])c1ccc(Sc2nnnn2-c2ccccc2)nc1	> 38 µM (inactive)
Cc1nc2c(=O)n(C)c(=O)n(C)c2nc1Cl	> 38 µM (inactive)
Cc1ccc(CN=Cc2[nH]c3ccc(Br)c(Cl)c3c2O)cc1	22.9 µM
Cc1ccc(C(=O)C2C(c3ccc(-c4ccccc4[N+](=O)[O-])o3)NC(=O)NC2(O)C(F)(F)F)cc1 (centres undefined)	19.9 µM
CCOc1ccc2c(c1)-c1c(ssc1=S)C(C)(C)N2	> 38 µM (inactive)
O=C(CCl)N(Cc1cc(=O)[nH]c2ccccc12)c1ccccc1	8.46 µM
CC(=O)OCCN(C)c1cc(SC(C)C)c2nonc2c1[N+](=O)[O-]	> 38 µM (inactive)
CCC(CC)C(=O)NCc1ccc2c(c1)cc(C)n2C	> 38 µM (inactive)
CC1=Nc2cccc3cccc(c23)N1C	> 38 µM (inactive)
Cc1[nH][nH]c(=O)c1C(c1ccc(N(C)C)c(Br)c1)c1c(C)[nH][nH]c1=O	38.7 µM
ONc1cccnc1-n1nc(C(F)(F)F)cc1C(F)(F)F	> 38 µM (inactive)
CC(C)C[C@H](N)c1nnc(S(=O)(=O)Cc2ccc(F)cc2)o1	> 38 µM (inactive)
O=C(O)c1ccc(S(=O)(=O)/N=C2\C=C(Nc3ccccc3F)C(=O)c3ccccc32)cc1	0.229 µM
O=C1C=C(NCc2ccccc2)c2ccccc2C1=O	5.91 µM
Cc1ccc2nc(-c3cccs3)oc(=O)c2c1	> 38 µM (inactive)
COc1ccc(NC(=O)/C(Cl)=C(/Cl)S(=O)(=O)Cc2ccc(C)cc2)cn1	35.2 µM
COC(=O)c1c(C)oc2ccc(N(C(=O)c3ccncc3)S(=O)(=O)c3ccc4ccccc4c3)cc12	> 38 µM (inactive)
COC(CNC(=O)c1ccc2c3c(onc13)-c1ccccc1C2=O)OC	> 38 µM (inactive)
CCOC(=O)/C(C#N)=C1/SC(C)C(=O)N1c1ccc(Br)cc1 (centres undefined)	> 38 µM (inactive)
CC(C)(C)c1[nH]nc2c1C(c1ccoc1)C(C#N)=C(N)O2 (centres undefined)	> 38 µM (inactive)
Cc1ccccc1CS(=O)(=O)c1nnc([C@H](Cc2ccccc2)NC(=O)OC(C)(C)C)o1	> 38 µM (inactive)
c1cncc(CNc2ncnc3sc4c(c23)CCCC4)c1	> 38 µM (inactive)
Cc1cc(=O)n(C2CCS(=O)(=O)C2)[nH]1 (centres undefined)	3.63 µM
CCOC(=O)C(CC)Sc1ncnc2c1nnn2-c1ccc(F)cc1 (centres undefined)	> 38 µM (inactive)
N#Cc1c(N2CCCC2)nc(N)c2c(N)nc(N3CCCC3)cc12	0.774 µM

SMILES	AC50
Cc1ccccc1CS(=O)(=O)c1snnc1C	> 38 µM (inactive)
COc1ccccc1C1C(C#N)=C(N)Oc2c1c(-c1ccccc1)nn2-c1ccccc1 (centres undefined)	11.9 µM
Fc1ccc(-[n+]2nc(Nc3ccccc3)sc2-c2c3ccccc3cc3ccccc23)cc1	12.4 µM
O=C(CN1CCN(S(=O)(=O)c2ccc(Cl)cc2)CC1)Nc1ccc2c(c1)OCO2	> 38 µM (inactive)
COc1cc(C=C(c2nc3ccccc3s2)c2nc3ccccc3s2)ccc1O	3.26 µM
OC(COC(c1ccc(Cl)cc1)c1ccc(Cl)cc1)CN1CCc2ccccc2C1 (centres undefined)	3.84 µM
CCOc1cc(C(c2c(C)[nH][nH]c2=O)c2c(C)[nH][nH]c2=O)cc([N+](=O)[O-])c1O	13.1 µM
CCOC(=O)c1cnc(-n2[nH]c(C)c(Cc3ccccc3)c2=O)[nH]c1=O	> 38 µM (inactive)
COCCN(C(=O)CCl)C(C(=O)NC1CCCCC1)c1ccccc1C (centres undefined)	8.09 µM
CCOC(=O)C1=C(O)c2ccccc2C(=O)/C1=C\c1ccc(CC)cc1	7.05 µM
COc1ccc(-c2cc(C(=O)n3cnc4ccccc43)c3ccccc3n2)cc1	> 38 µM (inactive)
CCOC(=O)C(C(=O)OCC)c1cc(Br)c2noc3c2c1C(=O)c1ccccc1-3	8.74 µM
Cc1[nH]nc2c1C1(CCOCC1)C(C#N)=C(N)O2	> 38 µM (inactive)
CC1(C)CC(=O)C(C2(O)C(=O)NC(=O)NC2=O)=C(O)C1	1.79 µM
Cc1ccccc1NC(=O)C(=Cc1ccc(C(=O)O)cc1)C(=O)Nc1ccccc1C	> 38 µM (inactive)
Cc1ccc(C(c2c(C)[nH][nH]c2=O)c2c(C)[nH][nH]c2=O)cc1	8.37 µM
O=C1CC(CSc2ccc(Cl)cc2)=NN1	25 µM
Cc1ccc(-c2nnc(Sc3nc4ccccc4o3)c3ccccc23)cc1	4.13 µM
COc1ccc(/C=C/C(=O)c2ccc(O)cc2)cc1COc1ccc(F)cc1	> 38 µM (inactive)
O=c1[nH]c(/C=C/c2cccnc2)c([N+](=O)[O-])c(=O)[nH]1	> 38 µM (inactive)
Cc1cccc(NC2=C(NC(=O)c3ccccc3)C(=O)c3ccccc3C2=O)c1	9.5 µM
COc1ccc(C(C[N+](=O)[O-])c2c(C)[nH]n(-c3ccccc3)c2=O)cc1 (centres undefined)	2.8 µM
Cc1cccc(CN2CCN(C(=O)CCl)CC2)c1	34.1 µM
O=Nc1c(O)c2ccccc2c2ccccc12	2.68 µM
FC(F)(F)c1nnc(-c2ccccc2)nc1Oc1ccc(Cl)cc1Cl	> 38 µM (inactive)
CCN(CC)CCNC(=O)c1ccc2c(c1NCCO)C(=O)c1ccccc1C2=O	13.1 µM

SMILES	AC50
COC(=O)c1ccc(-c2ccc(C(c3c(C)[nH][nH]c3=O)c3c(C)[nH][nH]c3=O)o2)cc1	1.6 µM
O=C1c2ccccc2-n2c1nc1ccccc1c2=O	> 38 µM (inactive)
CCCn1c(CC)nc([N+](=O)[O-])c1S(=O)(=O)c1ccccc1	> 38 µM (inactive)
O=C(NC1CCCC1)C(c1ccc(F)cc1)N(Cc1ccc(F)cc1)C(=O)CCl (centres undefined)	2.96 µM
Cc1[nH]nc2c1C1(CCN(C(=O)OCc3ccccc3)CC1)C(C#N)=C(N)O2	> 38 µM (inactive)
Cc1ccc2c(c1)Oc1ccc(NC(=O)CCl)cc1C(=O)N2	6.94 µM
Cc1cc(C)c(C(CC(=O)c2cccs2)C(C#N)C#N)c(C)c1 (centres undefined)	38.8 µM
Cc1nccn1-c1c([N+](=O)[O-])c(=O)n(C)c2ccccc12	> 38 µM (inactive)
Cc1ccc(NC(=O)C2=C(c3ccccc3)S(=O)(=O)CCS2(=O)=O)cc1	> 38 µM (inactive)
Cn1c(SCC(=O)NCC2CCCO2)ncc(C(=O)Nc2ccccc2)c1=O (centres undefined)	> 38 µM (inactive)
Nc1ccc2ncccc2c1	15.5 µM
Cc1ccc(Nc2cc(C)nn2-c2nc(C)cc(=O)[nH]2)cc1	5.05 µM
COC(=O)C[C@]1(C(=O)OC)CN(C#N)N(c2ccc(Cl)cc2)C12c1ccccc1-c1ccccc12	14.3 µM
CCOC(=O)c1c(NC(=O)/C=C/C(=O)O)sc(C)c1-c1ccc(F)cc1	18 µM
O=C(NCc1ccccc1)c1nc(S(=O)(=O)Cc2ccccc2)ncc1Cl	> 38 µM (inactive)
Cc1ccc([N+](=O)[O-])cc1S(=O)(=O)N(C(=O)c1ccncc1)c1ccc2oc3c(c2c1)CCCC3	> 38 µM (inactive)
Cc1ccc(C(c2cc(Cl)c3cccnc3c2O)N2CCN(C)CC2)cc1 (centres undefined)	19.3 µM
c1ccc(-c2ccc(C3CCCN3)cc2)cc1 (centres undefined)	> 38 µM (inactive)
O=C1c2cc(F)ccc2-n2c1nc1ccccc1c2=O	> 38 µM (inactive)
Cc1c([N+](=O)[O-])cnc(Sc2ccccc2)c1[N+](=O)[O-]	1.23 µM
Cc1ccc(S(=O)(=O)NCC2CCC(C(=O)NCCCN3CCOCC3)CC2)cc1 (centres undefined)	> 38 µM (inactive)
O=C(O)CN1C(=O)/C(=C\c2ccc(OC(=O)c3ccco3)cc2)SC1=S	> 38 µM (inactive)
Cc1ccc(C(=O)c2coc3cc([N+](=O)[O-])c(O)c([N+](=O)[O-])c23)cc1	> 38 µM (inactive)
Cc1c(N=C2C=CC(=O)c3ccccc32)c(=O)n(-c2ccccc2)n1C	3.51 µM
COc1ccc(C2=NN(c3nc(C)cc(C)n3)C(=O)C2)cc1	5.75 µM
O=S(=O)(N[C@H]1C[C@@H](NS(=O)(=O)OCC(Cl)(Cl)Cl)C2CCCCC21)OCC(Cl)(Cl)Cl (some centres undefined)	3.37 µM

Source: PubChem BioAssay AID449750 (Broad Institute, 2010)
